Test results published in patent publication US9221827B2, “Antimicrobial compounds and methods of making and using the same” (Melinta Therapeutics, Inc., priority 2011, dated 2015).

system: Escherichia coli strain ATCC25922; experiment: standard microdilution assay to determine minimum inhibitory concentrations (MICs); format: cell-based; conditions: Escherichia coli strain ATCC25922, microdilution
Procedure, shortened: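 Broth microdilution per CLSI (M7-A8/M100-S20), 100 μl final volume, with reference-strain quality control; MIC is the lowest inhibitory concentration. Scored "+"/"−" against a 16 micrograms/ml cutoff, "N/A" where unavailable.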

Row | Compound | E. coli ATCC25922 MIC
1 | Cc1cc(CCCC(C)N)cc(-c2cc3cn(-c4ccc(CNCCCNC(=N)N)cc4)c(=O)nc3[nH]2)c1F (stereo not drawn) [Compound 219] | + (a “+” indicates that the compound has an MIC value of 16 micrograms/ml or less)
2 | N=C(N)NCCCNCc1ccc(-n2cc3cc(-c4cc(CCCCN)cc([S+]([O-])C(F)(F)F)c4Cl)[nH]c3nc2=O)cc1 (stereo not drawn) [Compound 220] | + (a “+” indicates that the compound has an MIC value of 16 micrograms/ml or less)
3 | N=C(N)NCCCNCc1ccc(-n2cc3cc(-c4cc(CCCCN)cc(OC(F)(F)F)c4)[nH]c3nc2=O)cc1 [Compound 221] | + (a “+” indicates that the compound has an MIC value of 16 micrograms/ml or less)
4 | Cc1cc(CCCCN)cc(-c2cc3cn(-c4ccc(CNCCCNC(=N)N)cc4)c(=O)nc3[nH]2)c1C(F)(F)F [Compound 222] | + (a “+” indicates that the compound has an MIC value of 16 micrograms/ml or less)
5 | N=C(N)NCCCNCc1ccc(-n2cc3cc(-c4cc(CCC5(CN)CC5)cc(F)c4Cl)[nH]c3nc2=O)cc1 [Compound 223] | + (a “+” indicates that the compound has an MIC value of 16 micrograms/ml or less)
6 | N=C(N)NCCCNCc1ccc(-n2cc3cc(-c4cc(CCCN)cc(Cl)c4Cl)[nH]c3nc2=O)cc1 [Compound 224] | + (a “+” indicates that the compound has an MIC value of 16 micrograms/ml or less)
7 | N=C(N)NCCCNCc1ccc(-n2cc3cc(-c4cc(CCCN)cc(OC(F)(F)F)c4Cl)[nH]c3nc2=O)cc1 [Compound 225] | + (a “+” indicates that the compound has an MIC value of 16 micrograms/ml or less)
8 | N=C(N)NCCCNCc1ccc(-n2cc3cc(-c4cc(CCCCN)cc(Cl)c4C(F)(F)F)[nH]c3nc2=O)cc1 [Compound 226] | + (a “+” indicates that the compound has an MIC value of 16 micrograms/ml or less)
9 | C[C@H](NCCCNC(=N)N)c1ccc(-n2cc3cc(-c4ccc(C(NC5CN(C(=N)N)C5)C(F)(F)F)cc4)[nH]c3nc2=O)cc1 (stereo partly drawn) [Compound 227] | + (a “+” indicates that the compound has an MIC value of 16 micrograms/ml or less)
10 | N=C(N)NCCCNCc1ccc(-n2cc3cc(-c4cc(CCCN)cc(Cl)c4F)[nH]c3nc2=O)cc1 [Compound 228] | + (a “+” indicates that the compound has an MIC value of 16 micrograms/ml or less)
11 | CCOc1cc(CCCCN)cc(-c2cc3cn(-c4ccc(CNCCCNC(=N)N)cc4)c(=O)nc3[nH]2)c1C(F)(F)F [Compound 229] | + (a “+” indicates that the compound has an MIC value of 16 micrograms/ml or less)
12 | C[C@H](N)CCCc1cc(OC(F)(F)F)cc(-c2cc3cn(-c4ccc([C@H](C)NCCCNC(=N)N)cc4)c(=O)nc3[nH]2)c1 [Compound 230] | + (a “+” indicates that the compound has an MIC value of 16 micrograms/ml or less)
13 | CC(N)CCCc1cc(SC(F)(F)F)cc(-c2cc3cn(-c4ccc(C(C)NCCCNC(=N)N)cc4)c(=O)nc3[nH]2)c1 (stereo not drawn) [Compound 231] | + (a “+” indicates that the compound has an MIC value of 16 micrograms/ml or less)
14 | CCc1cc(CCCCN)cc(-c2cc3cn(-c4ccc(CNCCCNC(=N)N)cc4)c(=O)nc3[nH]2)c1C(F)(F)F [Compound 233] | + (a “+” indicates that the compound has an MIC value of 16 micrograms/ml or less)
15 | C[C@H](N)CCCc1cc(SC(F)(F)F)cc(-c2cc3cn(-c4ccc(CNCCCNC(=N)N)cc4)c(=O)nc3[nH]2)c1 [Compound 235] | + (a “+” indicates that the compound has an MIC value of 16 micrograms/ml or less)
16 | C[C@H](N)CCCc1cc(-c2cc3cn(-c4ccc([C@H](C)NCCCNC(=N)N)cc4)c(=O)nc3[nH]2)cc(C(F)(F)F)c1 [Compound 236] | + (a “+” indicates that the compound has an MIC value of 16 micrograms/ml or less)
17 | Cc1c(OC(F)F)cc(CCCCN)cc1-c1cc2cn(-c3ccc(CNCCCNC(=N)N)cc3)c(=O)nc2[nH]1 [Compound 237] | + (a “+” indicates that the compound has an MIC value of 16 micrograms/ml or less)
18 | N=C(N)NCCCNCc1ccc(-n2cc3cc(-c4cc(CC[C@@H](O)CN)cc(OC(F)(F)F)c4)[nH]c3nc2=O)cc1 [Compound 238] | + (a “+” indicates that the compound has an MIC value of 16 micrograms/ml or less)
19 | N=C(N)NCCCNCc1ccc(-n2cc3cc(-c4cc(CC[C@H](O)CN)cc(OC(F)(F)F)c4)[nH]c3nc2=O)cc1 [Compound 239] | + (a “+” indicates that the compound has an MIC value of 16 micrograms/ml or less)
20 | N=C(N)NCCCNCc1ccc(-n2cc3cc(-c4cc(CCC(O)CN)cc(OC(F)(F)F)c4)[nH]c3nc2=O)cc1 (stereo not drawn) [Compound 240] | + (a “+” indicates that the compound has an MIC value of 16 micrograms/ml or less)
21 | CC(CN)Cc1cc(OC(F)(F)F)cc(-c2cc3cn(-c4ccc(CNCCCNC(=N)N)cc4)c(=O)nc3[nH]2)c1 (stereo not drawn) [Compound 241] | + (a “+” indicates that the compound has an MIC value of 16 micrograms/ml or less)
22 | CC(CN)Cc1cc(-c2cc3cn(-c4ccc(CNCCCNC(=N)N)cc4)c(=O)nc3[nH]2)cc(C(F)(F)F)c1 (stereo not drawn) [Compound 242] | + (a “+” indicates that the compound has an MIC value of 16 micrograms/ml or less)
23 | CC(C)(CN)CCc1cc(Cl)c(F)c(-c2cc3cn(-c4ccc(CNCCCNC(=N)N)cc4)c(=O)nc3[nH]2)c1 [Compound 243] | + (a “+” indicates that the compound has an MIC value of 16 micrograms/ml or less)
24 | N=C(N)NCCCNCc1ccc(-n2cc3cc(-c4cc(CCCCN)cc(CF)c4C(F)(F)F)[nH]c3nc2=O)cc1 [Compound 244] | + (a “+” indicates that the compound has an MIC value of 16 micrograms/ml or less)
25 | CCOc1cc(CCCCN)cc(-c2cc3cn(-c4ccc(CNCCCNC(=N)N)cc4)c(=O)nc3[nH]2)c1F [Compound 245] | + (a “+” indicates that the compound has an MIC value of 16 micrograms/ml or less)
26 | N=C(N)NCCCNCc1ccc(-n2cc3cc(-c4cc(CCCCN)cc(CO)c4C(F)(F)F)[nH]c3nc2=O)cc1 [Compound 246] | + (a “+” indicates that the compound has an MIC value of 16 micrograms/ml or less)
27 | CC(CCN)Cc1cc(SC(F)(F)F)cc(-c2cc3cn(-c4ccc([C@H](C)NCCCNC(=N)N)cc4)c(=O)nc3[nH]2)c1 (stereo partly drawn) [Compound 247] | + (a “+” indicates that the compound has an MIC value of 16 micrograms/ml or less)
28 | C[C@H](N)CCCc1cc(-c2cc3cn(-c4ccc(CNCCCNC(=N)N)cc4)c(=O)nc3[nH]2)cc(C(F)(F)F)c1 [Compound 248] | + (a “+” indicates that the compound has an MIC value of 16 micrograms/ml or less)
29 | C[C@@H](N)CCCc1cc(-c2cc3cn(-c4ccc(CNCCCNC(=N)N)cc4)c(=O)nc3[nH]2)cc(C(F)(F)F)c1 [Compound 249] | + (a “+” indicates that the compound has an MIC value of 16 micrograms/ml or less)

same assay, conditions: Escherichia coli strain ATCC25922, microdilution; read-out: E. coli ATCC25922 MIC

Row | Compound | MIC [µg/mL]
30 | C[C@H](N)CCCc1cc(Cl)c(F)c(-c2cc3cn(-c4ccc([C@H](C)NCCCNC(=N)N)cc4)c(=O)nc3[nH]2)c1 [Compound 234] | ≤ 16
